Data from the NIST ThermoML archive (doi:10.1021/je900221m).

Assay: cn = amount concentration of the nth substance listed, in mol/dm3
Settings: 101 kPa, Liquid, Taylor dispersion method

NNC(=O)c1ccncc1 [isonicotinic acid hydrazide] + O
binary diffusion coefficient [m2/s]
Settings | c1 = 0 | c1 = 0.005 | c1 = 0.01 | c1 = 0.02 | c1 = 0.05 | c1 = 0.1
298.15 K | 8.26e-10 | 8.25e-10 | 8.23e-10 | 8.21e-10 | 8.14e-10 | 8.09e-10
310.15 K | 1.19e-09 | 1.18e-09 | 1.15e-09 | 1.11e-09 | 1.09e-09 | 1.04e-09
